Measurements as given in the supplement of paper PMC13380429.

Columns and labels:
Settings in all cases: 72 h
Vero E6 [1] = test: cell viability relative to DMSO; higher = less toxic
U2OS [2] = test: as above
Calu-3 [3] = test: as above
HepG2 [4] = test: as above
Caco-2 [5] = test: as above
Vero E6 [6] = test: drug sensitivity score (DSS) for viability; higher = more toxic; extreme values may be limits of the assay
U2OS [7] = test: as above
Calu-3 [8] = test: as above
HepG2 [9] = test: as above
Caco-2 [10] = test: as above
Vero E6 [11] = test: relative viability EC50 (midpoint between 100% and the lowest measured viability); higher = less toxic
U2OS [12] = test: as above
Calu-3 [13] = test: as above
HepG2 [14] = test: as above
Caco-2 [15] = test: as above

Structure (SMILES) | cell viability (Vero E6 [1]; 1 nM) [%] | cell viability (Vero E6 [1]; 10 nM) [%] | cell viability (Vero E6 [1]; 100 nM) [%] | cell viability (Vero E6 [1]; 1000 nM) [%] | cell viability (Vero E6 [1]; 10000 nM) [%] | cell viability (U2OS [2]; 1 nM) [%] | cell viability (U2OS [2]; 10 nM) [%] | cell viability (U2OS [2]; 100 nM) [%] | cell viability (U2OS [2]; 1000 nM) [%] | cell viability (U2OS [2]; 10000 nM) [%] | cell viability (Calu-3 [3]; 1 nM) [%] | cell viability (Calu-3 [3]; 10 nM) [%] | cell viability (Calu-3 [3]; 100 nM) [%] | cell viability (Calu-3 [3]; 1000 nM) [%] | cell viability (Calu-3 [3]; 10000 nM) [%] | cell viability (HepG2 [4]; 1 nM) [%] | cell viability (HepG2 [4]; 10 nM) [%] | cell viability (HepG2 [4]; 100 nM) [%] | cell viability (HepG2 [4]; 1000 nM) [%] | cell viability (HepG2 [4]; 10000 nM) [%] | cell viability (Caco-2 [5]; 1 nM) [%] | cell viability (Caco-2 [5]; 10 nM) [%] | cell viability (Caco-2 [5]; 100 nM) [%] | cell viability (Caco-2 [5]; 1000 nM) [%] | cell viability (Caco-2 [5]; 10000 nM) [%] | drug sensitivity score (Vero E6 [6]) | drug sensitivity score (U2OS [7]) | drug sensitivity score (Calu-3 [8]) | drug sensitivity score (HepG2 [9]) | drug sensitivity score (Caco-2 [10]) | relative viability EC50 (Vero E6 [11]) [µM] | relative viability EC50 (U2OS [12]) [µM] | relative viability EC50 (Calu-3 [13]) [µM] | relative viability EC50 (HepG2 [14]) [µM] | relative viability EC50 (Caco-2 [15]) [µM]
CCC(C)SSc1ncc[nH]1 (stereo not given) [PX-12] | 96.7 | 97.8 | 103 | 97.5 | 99.8 | 98 | 96.4 | 103 | 97.5 | 84.1 | 106 | 98 | 110 | 84 | 104 | 99.3 | 104 | 104 | 98.3 | 89.8 | 90.8 | 100 | 102 | 93.1 | 97.7 | 0 | 0.6 | 0 | 0 | 0 | > 10 | > 10 | > 10 | > 10 | > 10
Cc1cccc(N(C)C(=S)Oc2ccc3ccccc3c2)c1 [tolnaftate] | 101 | 102 | 98.5 | 91.8 | 88.6 | 99.1 | 99.2 | 94.9 | 100 | 93.3 | 98 | 90 | 94 | 94.6 | 101 | 100 | 100 | 91.6 | 97.9 | 93.8 | 93.3 | 99.7 | 94 | 94.8 | 96.8 | 0.1 | 0 | 0 | 0 | 0 | > 10 | > 10 | > 10 | > 10 | > 10
NC(=O)C1=CN([C@@H]2O[C@H](COP(=O)(O)OP(=O)(O)OC[C@H]3O[C@@H](n4cnc5c(N)ncnc54)[C@H](O)[C@@H]3O)[C@@H](O)[C@H]2O)C=CC1 [coenzyme-I] | 93 | 96.4 | 89.3 | 97.2 | 105 | 103 | 97.5 | 101 | 95.9 | 113 | 91.4 | 92.2 | 100 | 93.2 | 97.3 | 93.3 | 103 | 89.4 | 111 | 90.2 | 103 | 94.2 | 88.7 | 98.7 | 108 | 0 | 0 | 0 | 0 | 0 | > 10 | > 10 | > 10 | > 10 | > 10
NS(=O)(=O)c1nn2cc(-c3ccccc3)nc2s1 [AEG3482] | 97.2 | 97 | 96.1 | 94.8 | 92.1 | 101 | 98.1 | 97.8 | 99.2 | 100 | 98 | 104 | 95.8 | 95.1 | 109 | 87.5 | 90.2 | 93 | 97 | 94.6 | 99.9 | 99 | 102 | 88.4 | 89.4 | 0 | 0 | 0 | 0 | 0.4 | > 10 | > 10 | > 10 | > 10 | > 10
COc1ccc2c(c1OC)C(=O)O[C@@H]2[C@H]1c2c(cc3c(c2OC)OCO3)CCN1C [noscapine] | 98.4 | 102 | 96.9 | 104 | 104 | 103 | 98.7 | 101 | 97.5 | 102 | 97.3 | 103 | 102 | 95.9 | 95.8 | 105 | 100 | 86.2 | 100 | 104 | 115 | 109 | 98 | 110 | 105 | 0 | 0 | 0 | 0 | 0 | > 10 | > 10 | > 10 | > 10 | > 10
O=[N+]([O-])c1cc2nc(O)c(O)nc2cc1[N+](=O)[O-] [DNQX] | 86.8 | 96.1 | 89.2 | 95.8 | 102 | 104 | 96.8 | 101 | 93.6 | 98 | 96.8 | 96.3 | 100 | 97.4 | 94.3 | 102 | 101 | 95.6 | 101 | 102 | 86.4 | 94.2 | 97.4 | 89.3 | 94.4 | 0 | 0 | 0 | 0 | 0 | > 10 | > 10 | > 10 | > 10 | > 10
Oc1cccc(Nc2ccc(Nc3cccc(O)c3)nn2)c1 [beta-amyloid-synthesis-inhibitor] | 92.4 | 97.3 | 93.8 | 98 | 95.5 | 106 | 97.1 | 100 | 100 | 106 | 115 | 94.9 | 98.1 | 106 | 102 | 102 | 101 | 97.9 | 98.6 | 104 | 101 | 90.4 | 109 | 101 | 94.4 | 0 | 0 | 0 | 0 | 0 | > 10 | > 10 | > 10 | > 10 | > 10
CCC(NC(C)C)C(O)c1ccc(O)c(O)c1 (stereo not given) [isoetharine] | 93.1 | 91.8 | 92.9 | 91.9 | 102 | 90.2 | 97.3 | 95.1 | 95.4 | 94 | 108 | 98.9 | 88.4 | 103 | 95.6 | 102 | 96.7 | 104 | 101 | 102 | 85.9 | 100 | 118 | 102 | 104 | 0 | 0 | 0 | 0 | 0 | > 10 | > 10 | > 10 | > 10 | > 10
C/C(=C\C(=O)OCCCCCCCCC(=O)O)C[C@@H]1OC[C@H](C[C@@H]2O[C@H]2[C@@H](C)[C@H](C)O)[C@@H](O)[C@H]1O [mupirocin] | 97 | 102 | 95.4 | 97.3 | 97.1 | 104 | 99.7 | 99.3 | 94.7 | 99.8 | 106 | 104 | 102 | 90.8 | 109 | 104 | 100 | 100 | 100 | 92.2 | 99.9 | 107 | 95.2 | 98 | 102 | 0 | 0 | 0 | 0 | 0 | > 10 | > 10 | > 10 | > 10 | > 10
c1ccc(CC2=NCCN2)cc1 [tolazoline] | 108 | 111 | 104 | 106 | 98.6 | 99.9 | 97.9 | 102 | 101 | 101 | 103 | 103 | 87.3 | 98.4 | 114 | 97.3 | 102 | 101 | 108 | 99.9 | 103 | 93.1 | 97.5 | 95 | 98 | 0 | 0 | 0 | 0 | 0 | > 10 | > 10 | > 10 | > 10 | > 10
CCOCc1nc2c(N)nc3ccccc3c2n1CC(C)(C)O [resiquimod] | 108 | 101 | 100 | 99.9 | 102 | 99.7 | 103 | 101 | 100 | 97.8 | 102 | 101 | 94.7 | 101 | 92 | 103 | 104 | 103 | 101 | 94.5 | 97.7 | 96.7 | 97.3 | 90.4 | 91.3 | 0 | 0 | 0 | 0 | 0 | > 10 | > 10 | > 10 | > 10 | > 10
Cc1sc(C)c(C(=O)NC2(c3ccc(C(=O)O)cc3)CC2)c1Cc1ccc(C(F)(F)F)cc1 [MK-2894] | 93.7 | 92.9 | 96.5 | 93.6 | 85.9 | 93.1 | 99.8 | 100 | 102 | 106 | 99.3 | 107 | 103 | 101 | 109 | 104 | 99.9 | 111 | 96.4 | 96.4 | 94.8 | 95.7 | 89 | 101 | 101 | 0 | 0 | 0 | 0 | 0 | > 10 | > 10 | > 10 | > 10 | > 10
CON(C)C(=O)[C@H](O)[C@H](Cc1ccccc1)NC(=O)c1cc2cc(Cl)ccc2[nH]1 | 106 | 101 | 103 | 94.2 | 101 | 99.3 | 102 | 98.6 | 101 | 95.9 | 88.7 | 109 | 92.7 | 106 | 118 | 105 | 95.3 | 103 | 90.5 | 90.1 | 91.9 | 105 | 92.9 | 100 | 90.4 | 0 | 0 | 0 | 0 | 0 | > 10 | > 10 | > 10 | > 10 | > 10
